Results: PubChem BioAssay AID248 (DTP/NCI, 2004)
Where “and” joins values, the source holds several entries; their conditions need not be identical. Equal entries are not always repeated. Inconclusive results and toxic doses are left out. Rule as the data show it: active = T/C of 150% or more; inactive = T/C below 125%.

Tested on: L1210 leukemia ip in BDF1 mice, survival T/C
Experiment: NCI In Vivo Anticancer Drug Screen. Data for tumor model L1210 Leukemia (intraperitoneal) in B6D2F1 (BDF1) mice
Details: endpoint: mean survival time, higher = longer survival
Procedure, shortened: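 Tumor cells were implanted, animals were treated, and survival was followed. The result divides the treated measurement by the vehicle-control measurement.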

[1] = dose: 100.0 mg/kg/injection, schedule: Q01DX001 (ip), vehicle: Klucel (hydroxypropylcellulose) (HPC)
[2] = dose: 200.0 mg/kg/injection, schedule: Q01DX001 (ip), vehicle: Klucel (hydroxypropylcellulose) (HPC)
[3] = dose: 100.0 mg/kg/injection, schedule: Q01DX009 (ip), vehicle: Klucel (hydroxypropylcellulose) (HPC)
[4] = dose: 100.0 mg/kg/injection, schedule: Q04DX003 (ip), vehicle: Klucel (hydroxypropylcellulose) (HPC)
[5] = dose: 200.0 mg/kg/injection, schedule: Q01DX009 (ip), vehicle: Klucel (hydroxypropylcellulose) (HPC)
[6] = dose: 200.0 mg/kg/injection, schedule: Q04DX003 (ip), vehicle: Klucel (hydroxypropylcellulose) (HPC)
[7] = dose: 400.0 mg/kg/injection, schedule: Q01DX009 (ip), vehicle: Klucel (hydroxypropylcellulose) (HPC)
[8] = dose: 400.0 mg/kg/injection, schedule: Q04DX003 (ip), vehicle: Klucel (hydroxypropylcellulose) (HPC)
[9] = dose: 25.0 mg/kg/injection, schedule: Q01DX009 (ip), vehicle: saline
[10] = dose: 50.0 mg/kg/injection, schedule: Q01DX009 (ip), vehicle: saline
[11] = dose: 100.0 mg/kg/injection, schedule: Q01DX001 (ip), vehicle: saline with Tween-80
[12] = dose: 200.0 mg/kg/injection, schedule: Q01DX001 (ip), vehicle: saline with Tween-80
[13] = dose: 400.0 mg/kg/injection, schedule: Q01DX001 (ip), vehicle: saline with Tween-80
[14] = dose: 100.0 mg/kg/injection, schedule: Q01DX009 (ip), vehicle: saline with Tween-80
[15] = dose: 200.0 mg/kg/injection, schedule: Q01DX009 (ip), vehicle: saline with Tween-80
[16] = dose: 400.0 mg/kg/injection, schedule: Q01DX009 (ip), vehicle: saline with Tween-80
[17] = dose: 100.0 mg/kg/injection, schedule: Q04DX002 (ip), vehicle: Klucel (hydroxypropylcellulose) (HPC)
[18] = dose: 200.0 mg/kg/injection, schedule: Q04DX002 (ip), vehicle: Klucel (hydroxypropylcellulose) (HPC)
[19] = dose: 100.0 mg/kg/injection, schedule: Q01DX009 (ip), vehicle: saline
[20] = dose: 200.0 mg/kg/injection, schedule: Q01DX009 (ip), vehicle: saline
[21] = dose: 400.0 mg/kg/injection, schedule: Q01DX009 (ip), vehicle: saline
[22] = dose: 50.0 mg/kg/injection, schedule: Q01DX001 (ip), vehicle: Klucel (hydroxypropylcellulose) (HPC)
[23] = dose: 100.0 mg/kg/injection, schedule: Q04DX003 (ip), vehicle: saline
[24] = dose: 200.0 mg/kg/injection, schedule: Q04DX003 (ip), vehicle: saline
[25] = dose: 400.0 mg/kg/injection, schedule: Q04DX003 (ip), vehicle: saline

Measured: T/C

CC(CC(=O)O)[Se][Se]C(C)CC(=O)O (stereo not given)
inactive: [1] 108 % of control | [2] 102 % of control

O=S1(=O)CC2=C1/C=C/CCCC2
inactive: dose: 5.0 mg/kg/injection, schedule: Q04DX002 (ip), vehicle: Klucel (hydroxypropylcellulose) (HPC) 90 % of control | dose: 10.0 mg/kg/injection, schedule: Q01DX001 (ip), vehicle: saline 102 % of control | dose: 10.0 mg/kg/injection, schedule: Q04DX002 (ip), vehicle: Klucel (hydroxypropylcellulose) (HPC) 96 % of control

O=C(c1ccccc1)c1c2ccccc2c(Br)c2ccccc12
inactive: [3] 97 % of control | [4] 100 % of control | [5] 96 % of control | [6] 95 % of control | [7] 91 % of control | [8] 89 % of control

COc1ccc2c(c1)c1c(C)c3cnccc3c(C)c1n2CCOC(C)=O
inactive: dose: 12.5 mg/kg/injection, schedule: Q01DX009 (ip), vehicle: saline 107 % of control | [9] 100 % of control | [10] 112 % of control | [11] 88 % of control | [12] 100 % of control | [13] 120 % of control

CN(C)c1ccc(/C=N/NC(=O)Cc2cccc3ccccc23)cc1
inactive: [14] 90 % of control | [15] 86 % of control | [16] 86 % of control

O=C(Nc1ccccc1)OC1CCCC2CCCCC21 (stereo not given)
inactive: [4] 96 % of control | [6] 96 % of control | [8] 93 % of control

CN(C)N=Nc1ccc(C(=O)N/N=C/c2cccc([N+](=O)[O-])c2)cc1
inactive: dose: 50.0 mg/kg/injection, schedule: Q04DX003 (ip), vehicle: Klucel (hydroxypropylcellulose) (HPC) 92 % of control | [4] 106 % of control | [6] 92 % of control

CCC(C)C(C=NCC(CCN1CCOCC1)(c1ccc2ccccc2c1)C(C)CC)(CCN1CCOCC1)c1ccc2ccccc2c1 (stereo not given)
inactive: dose: 50.0 mg/kg/injection, schedule: Q04DX002 (ip), vehicle: Klucel (hydroxypropylcellulose) (HPC) 100 % of control | [17] 92 % of control | [18] 92 % of control

O=C(O)CC(C(=O)O)C1C=CCC1 (stereo not given)
inactive: [19] 97 % of control | [20] 115 % of control | [21] 101 % of control

O=c1[nH]c2cscc2c(=O)n1O
inactive: [4] 103 % of control | [6] 97 % of control | [8] 107 % of control

CCCCNC(C)(C)C(SS)c1ccco1 (stereo not given)
inactive: dose: 12.5 mg/kg/injection, schedule: Q04DX003 (ip), vehicle: alcohol 104 % of control | [9] 97 % of control | dose: 25.0 mg/kg/injection, schedule: Q04DX003 (ip), vehicle: alcohol 101 % of control | [10] 92 % of control | dose: 50.0 mg/kg/injection, schedule: Q04DX003 (ip), vehicle: alcohol 96 % of control | [19] 98 % of control | dose: 100.0 mg/kg/injection, schedule: Q04DX003 (ip), vehicle: alcohol 101 % of control | dose: 150.0 mg/kg/injection, schedule: Q01DX009 (ip), vehicle: saline with Tween-80 92 % of control | dose: 200.0 mg/kg/injection, schedule: Q04DX003 (ip), vehicle: alcohol 104 % of control

CC(O)c1cccc([N+](=O)[O-])c1 (stereo not given)
inactive: [14] 104 % of control | [15] 94 % of control | [16] 90 % of control

CN1CCC(OC(=O)C(C)(O)C#Cc2ccccc2)CC1 (stereo not given)
inactive: [22] 102 % of control | [1] 97 % of control | [2] 100 % of control

CSc1n[nH]c(Cl)n1
inactive: dose: 25.0 mg/kg/injection, schedule: Q04DX002 (ip), vehicle: saline with Tween-80 98 % of control and 103 % of control | dose: 50.0 mg/kg/injection, schedule: Q04DX002 (ip), vehicle: saline with Tween-80 102 % of control and 106 % of control | dose: 100.0 mg/kg/injection, schedule: Q04DX002 (ip), vehicle: saline with Tween-80 103 % of control and 107 % of control and 114 % of control | dose: 200.0 mg/kg/injection, schedule: Q04DX002 (ip), vehicle: saline with Tween-80 104 % of control and 113 % of control and 90 % of control | dose: 400.0 mg/kg/injection, schedule: Q04DX002 (ip), vehicle: saline with Tween-80 93 % of control

CCCc1nc2c(c(=O)n(C)c(=O)n2C)n1C
inactive: dose: 45.0 mg/kg/injection, schedule: Q01DX001 (ip), vehicle: saline 97 % of control and 98 % of control | dose: 67.0 mg/kg/injection, schedule: Q01DX001 (ip), vehicle: saline 97 % of control and 103 % of control | dose: 100.0 mg/kg/injection, schedule: Q01DX001 (ip), vehicle: saline 94 % of control and 101 % of control | dose: 150.0 mg/kg/injection, schedule: Q01DX001 (ip), vehicle: saline 98 % of control and 101 % of control

CC1=NCCO1
inactive: [23] 102 % of control | [24] 105 % of control | [25] 105 % of control

COC1OC2COC(c3ccccc3)OC2C(NC(C)=O)C1OC(C)=O (stereo not given)
inactive: [23] 98 % of control | [24] 97 % of control | [25] 101 % of control

O=C1COC(C(Cl)(Cl)Cl)CN1 (stereo not given)
inactive: [11] 108 % of control | [12] 105 % of control | [13] 103 % of control

CC(=O)Nc1cc(Cl)ccc1Cl
inactive: [4] 102 % of control | [6] 88 % of control | [8] 102 % of control

O=[N+]([O-])c1ccc(/C=C/C=C/c2ccccc2)cc1Cl
inactive: [4] 102 % of control | [6] 102 % of control | [8] 101 % of control

CC(C)OC(=S)SSc1nc2ccccc2s1
inactive: dose: 50.0 mg/kg/injection, schedule: Q01DX009 (ip), vehicle: saline with Tween-80 103 % of control | [14] 92 % of control | dose: 100.0 mg/kg/injection, schedule: Q04DX003 (ip), vehicle: saline with Tween-80 90 % of control | [15] 96 % of control | dose: 200.0 mg/kg/injection, schedule: Q04DX003 (ip), vehicle: saline with Tween-80 96 % of control

COc1cc(Cl)ccc1NC(=O)Oc1ccc(-c2ccccc2)cc1
inactive: [3] 116 % of control | [5] 94 % of control | [7] 92 % of control

OC1CC2CCC1C21OCCO1 (stereo not given)
inactive: [19] 107 % of control | [20] 100 % of control | [21] 109 % of control

O/N=C/c1c(O)cccc1Cl
inactive: dose: 75.0 mg/kg/injection, schedule: Q01DX001 (ip), vehicle: acetone 102 % of control | dose: 150.0 mg/kg/injection, schedule: Q01DX001 (ip), vehicle: acetone 91 % of control

O=S1(=O)CCC(N(/N=C/c2c[nH]c3ccccc23)c2ccccc2)C1 (stereo not given)
inactive: [17] 103 % of control | [18] 110 % of control | dose: 400.0 mg/kg/injection, schedule: Q04DX002 (ip), vehicle: Klucel (hydroxypropylcellulose) (HPC) 100 % of control

O=c1[nH]c(Cc2ccc([N+](=O)[O-])cc2)c(Br)c(=O)[nH]1
inactive: [22] 103 % of control | [1] 92 % of control | [2] 92 % of control

Nc1cccc(C(=O)O)c1C(=O)O
inactive: dose: 6.25 mg/kg/injection, schedule: Q01DX009 (ip), vehicle: saline with Tween-80 100 % of control | dose: 12.5 mg/kg/injection, schedule: Q01DX009 (ip), vehicle: saline with Tween-80 96 % of control | dose: 25.0 mg/kg/injection, schedule: Q01DX009 (ip), vehicle: saline with Tween-80 91 % of control | dose: 75.0 mg/kg/injection, schedule: Q01DX001 (ip), vehicle: carboxymethylcellulose (CMC) 91 % of control | [4] 100 % of control | dose: 150.0 mg/kg/injection, schedule: Q01DX001 (ip), vehicle: carboxymethylcellulose (CMC) 94 % of control | [6] 91 % of control
